Source: US7576109B2, “1,3,4-oxadiazol-2-ones as PPAR delta modulators and their use thereof” (Aventis Pharmaceuticals Inc., priority 2004, dated 2009)

Test system: rat oligodendrocyte cultures
Assay: Primary rat oligodendrocyte differentiation assay (myelin basic protein expression)
Type: cell-based
Conditions: primary rat oligodendrocytes, compared to untreated controls
Excerpt: • 1. Primary rat oligodendrocyte progenitor cells are obtained from the neocortex of newborn (postnatal days 2-3) rats or mice and are enriched, after removal of microglia, by mechanical separation from the astrocytic monolayer using a modification of the technique originally described by McCarthy and de Vellis (1980). • 2. Remove the meninges from neonatal rat brain and mechanically dissociate tissue. Plate cells on T75 flasks and feed cells with DMEM/F12+10% FBS. • 3. Collect oligodendrocytes growing on the astrocyte bed layer by shaking-off method fourteen days after the original prep date. Centrifuge the suspension and resuspend the cell pellet in serum free media (SFM; DMEM combined with 25 μg/ml transferring, 30 nM triiodothyronine, 20 nM hydrocortisone, 20 nM progesterone, 10 nM biotin, 1× trace elements, 30 nM selenium, 1 μg/ml putrescine, 0.1% BSA, 5 U/ml PenStrep, 10 μg/ml insulin) supplemented with the following growth factors: Platelet derived growth factor-AA (PDGF) and fibroblast growth factor-2 (FGF). • 4. Plate the cells on PDL-coated dishes and incubate at 37° C. with 6-7% CO2. • 5. Media components are replaced every 48 hr to keep the cells in a progenitor state. Progenitor Cell Passaging to Increase Cell Numbers for Screening Assays: • 1. When the culture are confluent, rinse the culture with PBS, add trypsin and incubate for ˜2-3 min at 37° C. • 2. Neutralize and centrifuge the cell suspension at 900 g for 5 min. • 3. Resuspend the cell pellet in SFM+PDGF/FGF. • 4. Feed the cells with fresh growth factors every 48 hrs to keep enrich for rapidly dividing progenitor cells. • 5. Cells are passaged no more than 4-5 times prior to experimental assays. • 6. All experiments involving oligodendrocyte progenitor cells were done using cells that were continuously maintained under these conditions. Greater than 95% of all cells were A2B5 immunopositive and expressed 2′3′-cyclic nucleotide 3′-phosphodiesterase II mRNA. • 7. To generate mature oligodendrocytes, 24 h after plating progenitor cells were switched to SFM supplemented with or without IGF-I and grown under these conditions for 7 d prior to experimental assays. • 8. Alternatively, the enriched rat Central Glia-4 (CG4) progenitor cell line may be used, which is maintained in base media (DMEM, with 2 mM glutamine, 1 mM sodium pyruvate, biotin (40 nM), insulin (1 μM) and N1) supplemented with 30% conditioned media from the B-104 neuroblastoma cell line. To induce differentiation, CG4 cells are switched to base media with 1% fetal calf serum (removed after 2 days) and insulin (500 nM). A2B5 and MBP immunoreactivity is used to confirm >95% enrichment in immature and mature cultures, respectively. Rat/Mouse Culture Compound Treatment: • 1. […]

| SMILES | Fold Increase in Myelin Basic Protein Expression in Oligodendrocyte Differentiation Assay (concentration 1 μM) | Fold Increase in Myelin Basic Protein Expression in Oligodendrocyte Differentiation Assay (concentration 10 μM) |
| --- | --- | --- |
| CCCCc1nc(-c2ccc(C(F)(F)F)cc2)sc1COc1ccc(-c2n[nH]c(=O)o2)c(Cl)c1 [Example 23] | 2 fold (1) | – |
| CCCCc1nc(-c2ccc(C(F)(F)F)cc2)sc1COc1ccc(Cc2n[nH]c(=O)o2)cc1 [Example 31, 5-{4-[4-Butyl-2-(4-trifluoromethyl-phenyl)-thiazol-5-ylmethoxy]-benzyl}-3H-[1,3,4]oxadiazol-2-one] | 2 fold (1) | – |
| Cc1nc(-c2ccc(C(F)(F)F)cc2)sc1COCc1ccc(-c2n[nH]c(=O)o2)cc1 [Example 14] | 1.5 fold (1) | – |
| Cc1nc(-c2ccc(C(F)(F)F)cc2)sc1COc1ccc(-c2n[nH]c(=O)o2)cc1 [Example 10, 5-{4-[4-Methyl-2-(4-trifluoromethyl-phenyl)-thiazol-5-ylmethoxy]-phenyl}-3H-[1,3,4]oxadiazol-2-one] | – | 1.5 fold (10) |
